{"source": "patent EP0299528A1", "about": "“Doxorubicin hydrochloride nonaqueous solution” (Bristol-Myers Squibb Company, priority 1987, dated 1989)", "key": {"[1]": {"method": "The pH is measured on solutions diluted to 1 mg/ml with water or 70% water/30% acetonitrile (v/v). […] An amount of citric acid is used which will provide a solution pH in the range of about 3-5, preferably 3-4.5.\nWe have tested a number of antioxidants including α-tocopherol, tert-butylhydroquinone (TBHQ), sodium formaldehyde bisulfite, butylated hydroxy anisole (BHA), butylated hydroxy toluene (BHT), sodium bisulfite and propyl gallate. […] Generally an amount of α-tocopherol, tert-butylhydroquinone or sodium formaldehyde bisulfite is employed in the range of about 0.1-2 mg/ml. The preferred concentration of antioxidant is about 0.5-2 mg/ml with about 2 mg/ml being most preferred.\nGlass vials may conveniently be used as the container."}, "[2]": {"conditions": "cited from earlier work"}, "[3]": {"conditions": "cited from earlier work; for reconstituted solution remains stable: in 0.9% NaCl solution, Ketchum, et al. 1981"}, "[4]": {"assay": "Solubility of doxorubicin HCl in nonaqueous solvents", "format": "physicochemical", "conditions": "organic solvent or mixture"}}, "note": "Counter-ions that a name gives are not always drawn. Like-named read-outs stand apart in the source and are kept apart here.", "data": [{"smiles": "CCCCCCCC/C=C\\CCCCCCCC(=O)OCCOCC(OCCO)C1OCC(OCCO)C1OCCO", "note": "(stereo not drawn) [Tween-80]", "values": [{"measurement": "effect of additive on stability of the solutions", "setting": "[1]", "result": "did not improve stability"}]}, {"smiles": "O=C(O)CC(O)(CC(=O)O)C(=O)O", "note": "[citric acid]", "values": [{"measurement": "stability of the solutions with the acid used for pH control", "setting": "[1]; acid used to reach a pH range of about 3-5", "result": "optimum stability"}]}, {"smiles": "COc1cccc2c1C(=O)c1c(O)c3c(c(O)c1C2=O)C[C@@](O)(C(=O)CO)C[C@@H]3O[C@H]1C[C@H](N)[C@H](O)[C@H](C)O1", "note": "[doxorubicin HCl, doxorubicin hydrochloride]", "values": [{"measurement": "pH of maximum stability", "setting": "[2]; Tris or phosphate buffers using HCl to adjust pH, Janssen, et al. 1985", "result": 4}, {"measurement": "pH of optimum stability", "setting": "[2]; reconstitution solvent 5% Dextrose Injection, USP, Poochikian, et al. 1981", "result": "~4.5"}, {"measurement": "reconstituted solution remains stable", "setting": "[3]; 5°C", "result": "seven"}, {"measurement": "reconstituted solution remains stable", "setting": "[3]; room temperature", "result": "seven"}, {"measurement": "reconstituted solutions stable (≦10% potency loss)", "setting": "[3]; refrigerated at 4°C, Hoffman, et al. 1979", "result": "up to six"}, {"measurement": "solubility", "setting": "[4]; glycerol formal, pyrrolidinones, glycerol formal, 2-pyrrolidinone and 1-methyl-2-pyrrolidinone, read-out: concentration of solutions produced", "result": "≥ 5000", "unit": "µg/mL"}, {"measurement": "solubility", "setting": "[4]; glycols with 5-10% water, propylene glycol, 1,2-dihydroxybutane, 1,3-dihydroxypropane with addition of 5-10% (v/v) water, read-out: solubility", "result": "~20000", "unit": "µg/mL"}, {"measurement": "solubility", "setting": "[4]; nonaqueous solvents, same three solvents after short-term (0.5-1 hour) warming (60-80°C) with vigorous stirring, read-out: solubility", "result": "~10000", "unit": "µg/mL"}, {"measurement": "solubility", "setting": "[4]; nonaqueous solvents, with heating, polyethylene glycols, ethanol, benzyl alcohol, dimethylisosorbide, ethyl lactate, Solketol, Cremophors, Pluronics, read-out: solubility", "result": "< 5000", "unit": "µg/mL"}, {"measurement": "solubility", "setting": "[4]; propylene glycol, 1,2-dihydroxybutane, 1,3-dihydroxypropane, room temperature, in propylene glycol, 1,2-dihydroxybutane and 1,3-dihydroxypropane, read-out: solubility", "result": "< 5000", "unit": "µg/mL"}, {"measurement": "chemical stability of solutions", "setting": "[1]; glycerol formal, 2-pyrrolidinone and 1-methyl-2-pyrrolidinone", "result": "chemically unstable"}, {"measurement": "potency loss", "setting": "[1]; short-term (0.5-1 hour) warming (60-80°C) in propylene glycol, 1,2-dihydroxybutane or 1,3-dihydroxypropane", "result": "no potency loss"}, {"measurement": "physical stability of the solution on storage", "setting": "[1]; stored at 4°C to -20°C, seeding with crystalline doxorubicin HCl does not affect crystallization", "result": "remains in solution"}]}, {"smiles": "O=S(=O)(O)CO", "note": "[sodium formaldehyde bisulfite]", "values": [{"measurement": "stability of the solutions with the antioxidant", "setting": "[1]", "result": "resulted in the desired stability"}]}, {"smiles": "CC(C)(C)c1cc(O)ccc1O", "note": "[tert-butylhydroquinone]", "values": [{"measurement": "stability of the solutions with the antioxidant", "setting": "[1]; elevated temperatures as well as room temperature (25°C) or below", "result": "resulted in the desired stability"}]}, {"smiles": "Cc1c(C)c2c(c(C)c1O)CCC(C)(CCCC(C)CCCC(C)CCCC(C)C)O2", "note": "(stereo not drawn) [α-tocopherol]", "values": [{"measurement": "stability of the solutions with the antioxidant", "setting": "[1]", "result": "resulted in the desired stability"}]}]}
